Laboratory results published in patent US20240207202A1, “COMBINATION THERAPIES TARGETING MITOCHONDRIAL BIOGENESIS FOR CANCER THERAPY” (The Wistar Institute of Anatomy and Biology, priority 2015, published 2024).

Tests used:
Type in all cases: cell-based, human
mitochondrial mass = assay: Mitochondrial mass by MitoTracker Red; conditions: WM9, 72 h, Gamitrinib 1 μM combined with MAPK pathway inhibitors
Experimental: (§1) Adherent melanoma cells were harvested with 0.05% Trypsin-EDTA and were washed once with 1×DPBS. Cells were labeled with CellTrace™ Violet according to the manufacturer's protocol and were allowed to adhere to tissue culture plates overnight following the drug treatment. At indicated time points following the drug treatment, floating and adherent cells were pooled, washed with Hank's Buffered Salt Solution (HBSS) and then stained with CellROX Deep Red at 2.5 μM or MitoTracer Red at 0.25 μM for 1 h in a 37° C. humidified incubator supplied with 5% CO2. Cells were then pelleted, washed with DPBS, and stained with PSVue® 643 at 5 μM diluted in TES buffer for 5 min in the dark. Cells were then immediately subjected to FACS analysis using a BD LSR II flow cytometer and at least 5,000 cells per sample were acquired.

autophagic flux = assay: Autophagic flux in WM9 cells expressing mCherry-eGFP-LC3B; conditions: WM9, 72 h, Gamitrinib 1 μM or Spautin-1 10 μM combined with PLX4720 10 μM/PD0325901 1 μM
Experimental: WM9 cells stably expressing pLVO-Puro-mCherry-eGFP-LC3 were analyzed with a BD LSR II flow cytometer. Fluorescence of mCherry and eGFP was recorded to derive the ratio of mCherryheight over eGFP-height. This ratio indicates the autophagic flux.
Briefly, autophagic flux was assessed by FACS analysis of WM9 cells expressing the mCherry-eGFPLC3B construct that were transfected with the indicated siRNAs targeting autophagy and ER stress response and treated for 72 h with DMSO or the combination of PLX4720 at 10 μM and PD0325901 at 1 μM. The data represent the average of 2 biological replicates. Induction of apoptosis and cell death was assessed by PSVue 643 staining in WM9 cells expressing the mCherry-eGFP-LC3B construct transfected with the indicated siRNAs targeting autophagy and ER stress response and treated for 72 h with DMSO or the combination of PLX4720 at 10 μM and PD0325901 at 1 μM. Autophagic flux was assessed by FACS analysis of WM9 cells expressing the mCherry-eGFPLC3B construct treated for 72 h with Gamitrinib at 1 μM or Spautin-1 at 10 μM in combination with PLX4720 at 10 μM/PD0325901 at 1 μM. Cells treated with DMSO were used as the control for setting up the gate. Induction of apoptosis and cell death was assessed by PSVue 643 staining in WM9 cells treated for 72 h with Gamitrinib at 1 μM or Spautin-1 at 10 μM in combination with PLX4720 at 10 μM/PD0325901 at 1 μM. […]

reactive oxygen species = assay: ROS by CellROX Deep Red; conditions: WM9, 72 h, Gamitrinib 1 μM with PLX4720 10 μM and PD0325901 1 μM
Experimental: as §1
Labeling cells with CellROX Deep Red—Following drug treatment, floating and adherent cells were pooled and stained in FACS tubes with CellROX Deep Red at 2.5 μM. Fluorescent dyes were diluted in 10% DMEM/F12 culture medium. Stained cell suspensions were kept in a 37° C. tissue culture incubator for 60 min with brief vortexing every 30 min. Cells were then washed with 1×PBS supplemented with 10% FBS.

In the case of Gamitrinib, the mitochondrial mass (mitochondrial mass) is reported as “decreases”, the autophagic flux (autophagic flux) is reported as “decreased the autophagic flux” and the “ROS production compared to MAPK pathway inhibitors alone” value (reactive oxygen species) is reported as “markedly increased the ROS production”.
